Experiments:
Experiment in all cases: Test F preemergence/postemergence greenhouse plant response rating 0 to 100
Conditions in all cases: 0 to 100 scale
winter barley = type: in vivo, Hordeum vulgare cv. ‘Igri’
Excerpt: (§1) Compounds evaluated in this test were formulated in a non-phytoxic solvent and applied to the soil surface before plant seedlings emerged (preemergence application) and to plants that were in the one-to-four leaf stage (postemergence application). A sandy loam soil was used for the preemergence test while a mixture of sandy loam soil and greenhouse potting mix in a 60:40 ratio was used for the postemergence test. Test compounds were applied within approximately one day after planting seeds for the preemergence test. Plantings of these crops and weed species were adjusted to produce plants of appropriate size for the postemergence test. All plant species were grown using normal greenhouse practices. Crop and weed species include winter barley (Hordeum vulgare cv. ‘Igri’), blackgrass (Alopecurus myosuroides), chickweed (Stellaria media), downy brome (Bromus tectorum), field violet (Viola arvensis), galium (Galium aparine), green foxtail (Setaria viridis), kochia (Kochia scoparia), lambsquarters (Chenopodium album), speedwell (Veronica persica), rape (Brassica napus), ryegrass (Lolium multiflorum), sugar beet (Beta vulgaris cv. ‘USl’), sunflower (Helianthus annuus cv. ‘Russian Giant’), spring wheat (Triticum aestivum cv. ‘ERA’), winter wheat (Triticum aestivum cv. ‘Talent’), wild buckwheat (Polygonum convolvulus), wild mustard (Sinapis arvensis), wild oat (Avena fatua), and wild radish (Raphanus raphanistrum). Blackgrass, galium and wild oat were treated at two growth stages. […] Treated plants and untreated controls were maintained in a greenhouse for approximately 21 to 28 days, after which all treated plants were compared to untreated controls and visually evaluated. […] A dash response (-) means no test result.

blackgrass = type: in vivo, Alopecurus myosuroides
Excerpt: as §1

chickweed = type: in vivo, Stellaria media
Excerpt: as §1

field violet = type: in vivo, Viola arvensis
Excerpt: as §1

galium = type: in vivo, Galium aparine
Excerpt: as §1

green foxtail = type: in vivo, Setaria viridis
Excerpt: as §1

[1] = POSTEMERGENCE, Rate 4 g/ha, stage (1) two to three leaves
[2] = POSTEMERGENCE, Rate 4 g/ha, stage (2) approximately four leaves or initial tillering
[3] = POSTEMERGENCE, Rate 8 g/ha, stage (1) two to three leaves
[4] = POSTEMERGENCE, Rate 8 g/ha, stage (2) approximately four leaves or initial tillering
[5] = POSTEMERGENCE, Rate 16 g/ha, stage (1) two to three leaves
[6] = POSTEMERGENCE, Rate 16 g/ha, stage (2) approximately four leaves or initial tillering
[7] = POSTEMERGENCE, Rate 32 g/ha, stage (1) two to three leaves
[8] = POSTEMERGENCE, Rate 32 g/ha, stage (2) approximately four leaves or initial tillering
[9] = POSTEMERGENCE, Rate 64 g/ha, stage (1) two to three leaves
[10] = POSTEMERGENCE, Rate 64 g/ha, stage (2) approximately four leaves or initial tillering
[11] = POSTEMERGENCE, Rate 125 g/ha, stage (1) two to three leaves
[12] = POSTEMERGENCE, Rate 125 g/ha, stage (2) approximately four leaves or initial tillering
[13] = POSTEMERGENCE, Rate 250 g/ha, stage (1) two to three leaves
[14] = POSTEMERGENCE, Rate 250 g/ha, stage (2) approximately four leaves or initial tillering

C#CCOc1cc(-c2nn3c(c2Br)CCCC3)c(F)cc1Cl [Compound 26]
Winter Barley plant response rating (winter barley; POSTEMERGENCE, Rate 4 g/ha): 0 | Winter Barley plant response rating (winter barley; POSTEMERGENCE, Rate 8 g/ha): 0 | Winter Barley plant response rating (winter barley; POSTEMERGENCE, Rate 16 g/ha): 0 | Winter Barley plant response rating (winter barley; POSTEMERGENCE, Rate 32 g/ha): 20 | Winter Barley plant response rating (winter barley; POSTEMERGENCE, Rate 64 g/ha): 30 | Winter Barley plant response rating (winter barley; POSTEMERGENCE, Rate 125 g/ha): 30 | Winter Barley plant response rating (winter barley; POSTEMERGENCE, Rate 250 g/ha): 30 | Winter Barley plant response rating (winter barley; PREEMERGENCE, Rate 4 g/ha): 0 | Winter Barley plant response rating (winter barley; PREEMERGENCE, Rate 8 g/ha): 0 | Winter Barley plant response rating (winter barley; PREEMERGENCE, Rate 16 g/ha): 0 | Winter Barley plant response rating (winter barley; PREEMERGENCE, Rate 32 g/ha): 0 | Winter Barley plant response rating (winter barley; PREEMERGENCE, Rate 64 g/ha): 0 | Winter Barley plant response rating (winter barley; PREEMERGENCE, Rate 125 g/ha): 15 | Winter Barley plant response rating (winter barley; PREEMERGENCE, Rate 250 g/ha): 20 | Blackgrass (1) plant response rating (blackgrass; [1]): 0 | Blackgrass (2) plant response rating (blackgrass; [2]): 0 | Blackgrass (1) plant response rating (blackgrass; [3]): 0 | Blackgrass (2) plant response rating (blackgrass; [4]): 0 | Blackgrass (1) plant response rating (blackgrass; [5]): 0 | Blackgrass (2) plant response rating (blackgrass; [6]): 0 | Blackgrass (1) plant response rating (blackgrass; [7]): 0 | Blackgrass (2) plant response rating (blackgrass; [8]): 0 | Blackgrass (1) plant response rating (blackgrass; [9]): 0 | Blackgrass (2) plant response rating (blackgrass; [10]): 10 | Blackgrass (1) plant response rating (blackgrass; [11]): 10 | Blackgrass (2) plant response rating (blackgrass; [12]): 10 | Blackgrass (1) plant response rating (blackgrass; [13]): 30 | Blackgrass (2) plant response rating (blackgrass; [14]): 15 | Blackgrass (1) plant response rating (blackgrass; PREEMERGENCE, Rate 4 g/ha, Blackgrass (1)): 0 | Blackgrass (2) plant response rating (blackgrass; PREEMERGENCE, Rate 4 g/ha, Blackgrass (2)): 0 | Blackgrass (1) plant response rating (blackgrass; PREEMERGENCE, Rate 8 g/ha, Blackgrass (1)): 0 | Blackgrass (2) plant response rating (blackgrass; PREEMERGENCE, Rate 8 g/ha, Blackgrass (2)): 0 | Blackgrass (1) plant response rating (blackgrass; PREEMERGENCE, Rate 16 g/ha, Blackgrass (1)): 0 | Blackgrass (2) plant response rating (blackgrass; PREEMERGENCE, Rate 16 g/ha, Blackgrass (2)): 0 | Blackgrass (1) plant response rating (blackgrass; PREEMERGENCE, Rate 32 g/ha, Blackgrass (1)): 0 | Blackgrass (2) plant response rating (blackgrass; PREEMERGENCE, Rate 32 g/ha, Blackgrass (2)): 0 | Blackgrass (1) plant response rating (blackgrass; PREEMERGENCE, Rate 64 g/ha, Blackgrass (1)): 0 | Blackgrass (2) plant response rating (blackgrass; PREEMERGENCE, Rate 64 g/ha, Blackgrass (2)): 0 | Blackgrass (1) plant response rating (blackgrass; PREEMERGENCE, Rate 125 g/ha, Blackgrass (1)): 20 | Blackgrass (2) plant response rating (blackgrass; PREEMERGENCE, Rate 125 g/ha, Blackgrass (2)): 40 | Blackgrass (1) plant response rating (blackgrass; PREEMERGENCE, Rate 250 g/ha, Blackgrass (1)): 40 | Blackgrass (2) plant response rating (blackgrass; PREEMERGENCE, Rate 250 g/ha, Blackgrass (2)): 40 | Chickweed plant response rating (chickweed; POSTEMERGENCE, Rate 4 g/ha): 30 | Chickweed plant response rating (chickweed; POSTEMERGENCE, Rate 8 g/ha): 40 | Chickweed plant response rating (chickweed; POSTEMERGENCE, Rate 16 g/ha): 100 | Chickweed plant response rating (chickweed; POSTEMERGENCE, Rate 32 g/ha): 90 | Chickweed plant response rating (chickweed; POSTEMERGENCE, Rate 64 g/ha): 100 | Chickweed plant response rating (chickweed; POSTEMERGENCE, Rate 125 g/ha): 100 | Chickweed plant response rating (chickweed; POSTEMERGENCE, Rate 250 g/ha): 100 | Chickweed plant response rating (chickweed; PREEMERGENCE, Rate 4 g/ha): 0 | Chickweed plant response rating (chickweed; PREEMERGENCE, Rate 8 g/ha): 0 | Chickweed plant response rating (chickweed; PREEMERGENCE, Rate 16 g/ha): 45 | Chickweed plant response rating (chickweed; PREEMERGENCE, Rate 32 g/ha): 50 | Chickweed plant response rating (chickweed; PREEMERGENCE, Rate 64 g/ha): 100 | Chickweed plant response rating (chickweed; PREEMERGENCE, Rate 125 g/ha): 100 | Chickweed plant response rating (chickweed; PREEMERGENCE, Rate 250 g/ha): 100 | Field violet plant response rating (field violet; POSTEMERGENCE, Rate 4 g/ha): 100 | Field violet plant response rating (field violet; POSTEMERGENCE, Rate 8 g/ha): 100 | Field violet plant response rating (field violet; POSTEMERGENCE, Rate 16 g/ha): 100 | Field violet plant response rating (field violet; POSTEMERGENCE, Rate 32 g/ha): 100 | Field violet plant response rating (field violet; POSTEMERGENCE, Rate 64 g/ha): 100 | Field violet plant response rating (field violet; POSTEMERGENCE, Rate 125 g/ha): 100 | Field violet plant response rating (field violet; POSTEMERGENCE, Rate 250 g/ha): 100 | Field violet plant response rating (field violet; PREEMERGENCE, Rate 4 g/ha): 0 | Field violet plant response rating (field violet; PREEMERGENCE, Rate 8 g/ha): 0 | Field violet plant response rating (field violet; PREEMERGENCE, Rate 16 g/ha): 70 | Field violet plant response rating (field violet; PREEMERGENCE, Rate 32 g/ha): 100 | Field violet plant response rating (field violet; PREEMERGENCE, Rate 64 g/ha): 100 | Field violet plant response rating (field violet; PREEMERGENCE, Rate 125 g/ha): 100 | Field violet plant response rating (field violet; PREEMERGENCE, Rate 250 g/ha): 100 | Galium (1) plant response rating (galium; [1]): 0 | Galium (2) plant response rating (galium; [2]): 50 | Galium (1) plant response rating (galium; [3]): 0 | Galium (2) plant response rating (galium; [4]): 50 | Galium (1) plant response rating (galium; [5]): 30 | Galium (2) plant response rating (galium; [6]): 100 | Galium (1) plant response rating (galium; [7]): 50 | Galium (2) plant response rating (galium; [8]): 60 | Galium (1) plant response rating (galium; [9]): 100 | Galium (2) plant response rating (galium; [10]): 100 | Galium (1) plant response rating (galium; [11]): 100 | Galium (2) plant response rating (galium; [12]): 100 | Galium (1) plant response rating (galium; [13]): 100 | Galium (2) plant response rating (galium; [14]): 100 | Galium (1) plant response rating (galium; PREEMERGENCE, Rate 4 g/ha, Galium (1)): 0 | Galium (2) plant response rating (galium; PREEMERGENCE, Rate 4 g/ha, Galium (2)): 0 | Galium (1) plant response rating (galium; PREEMERGENCE, Rate 8 g/ha, Galium (1)): 0 | Galium (2) plant response rating (galium; PREEMERGENCE, Rate 8 g/ha, Galium (2)): 20 | Galium (1) plant response rating (galium; PREEMERGENCE, Rate 16 g/ha, Galium (1)): 0 | Galium (2) plant response rating (galium; PREEMERGENCE, Rate 16 g/ha, Galium (2)): 40 | Galium (1) plant response rating (galium; PREEMERGENCE, Rate 32 g/ha, Galium (1)): 100 | Galium (2) plant response rating (galium; PREEMERGENCE, Rate 32 g/ha, Galium (2)): 100 | Galium (1) plant response rating (galium; PREEMERGENCE, Rate 64 g/ha, Galium (1)): 100 | Galium (2) plant response rating (galium; PREEMERGENCE, Rate 64 g/ha, Galium (2)): 100 | Galium (1) plant response rating (galium; PREEMERGENCE, Rate 125 g/ha, Galium (1)): 100 | Galium (2) plant response rating (galium; PREEMERGENCE, Rate 125 g/ha, Galium (2)): 100 | Galium (1) plant response rating (galium; PREEMERGENCE, Rate 250 g/ha, Galium (1)): 100 | Galium (2) plant response rating (galium; PREEMERGENCE, Rate 250 g/ha, Galium (2)): 100 | Green foxtail plant response rating (green foxtail; POSTEMERGENCE, Rate 4 g/ha): 0 | Green foxtail plant response rating (green foxtail; POSTEMERGENCE, Rate 8 g/ha): 0 | Green foxtail plant response rating (green foxtail; POSTEMERGENCE, Rate 16 g/ha): 50 | Green foxtail plant response rating (green foxtail; POSTEMERGENCE, Rate 32 g/ha): 60 | Green foxtail plant response rating (green foxtail; POSTEMERGENCE, Rate 64 g/ha): 70 | Green foxtail plant response rating (green foxtail; POSTEMERGENCE, Rate 125 g/ha): 80 | Green foxtail plant response rating (green foxtail; POSTEMERGENCE, Rate 250 g/ha): 50 | Green foxtail plant response rating (green foxtail; PREEMERGENCE, Rate 4 g/ha): 0 | Green foxtail plant response rating (green foxtail; PREEMERGENCE, Rate 8 g/ha): 0 | Green foxtail plant response rating (green foxtail; PREEMERGENCE, Rate 16 g/ha): 20 | Green foxtail plant response rating (green foxtail; PREEMERGENCE, Rate 32 g/ha): 50 | Green foxtail plant response rating (green foxtail; PREEMERGENCE, Rate 64 g/ha): 100

Reference: US6358885B1, “Substituted phenylheterocyclic herbicides” (Mississippi State University, priority 1992, dated 2002)
